Laboratory results from patent publication US9863949B2, “Method for predicting and evaluating responsiveness to cancer treatment with DNA-damaging chemotherapeutic agents” (NEKTAR THERAPEUTICS, priority 2013, dated 2018).
Like-named read-outs stand apart in the source and are kept apart here.

Key:
NCI-H460 cells = assay: DNA damage pathway markers in NCI-H460 cells treated ex vivo, laser scanning cytometry; type: cell-based; conditions: NCI-H460, 0.01 μM drug
NCI-H460 = test system: NCI-H460
Protocol: (§1) Gemcitabine inhibits thymidylate synthetase, leading to inhibition of DNA synthesis and cell death. The cells were treated at concentrations of 0.01, 0.1, 1 and 10 μM in triplicate with appropriate controls.
(§2) A MTT cytotoxicity assay was performed. Optical density (OD) was determined for each sample, and IC50 values were determined (Graphpad Prism software using 4-parameter, non-linear curve fitting) for each drug relative to each cell line. The dose response of SN-38 and gemcitabine in the different cell lines was plotted.

HL60 = test system: HL60
Protocol: as §1, §2

HCT116 cells = assay: Biomarker assay qualification, drug-treated HCT116 cells, MFI by iCys; type: cell-based, human; conditions: HCT116 treated with 10 μM SN-38 for 24 hours
Protocol: Primary and secondary antibodies were obtained from commercial sources. Control (0.1% DMSO) and drug-treated (SN-38, 10 uM) tumor cell lines and peripheral blood mononuclear cells (PBMCs) from healthy donors were used for biomarker qualification. The cell lines employed were as follows: HCT 116 (human colon carcinoma), MCF7 (human breast adenocarcinoma), A549 (human lung carcinoma), and SK-BR-3 (human breast adenocarcinoma, derived from metastatic site).
Colorectal HCT-116 tumor cell lines treated with drug (SN-38, 10 μM) or DMSO (0.1%) were used as positive and negative controls, respectively, for the assay development for topoisomerase I and γ-H2Ax. […] After incubation, cells were detached using 0.25% trypsin for 2-5 minutes, washed, counted, fixed with 2% PFA for 20 minutes, and cytospun onto glass slides.
Colorectal HCT-116 tumor cell lines treated with drug (SN-38, 10 μM) or DMSO (0.1%) were used as positive and negative controls for the assay development of RAD51. […] After incubation, cells were detached using 0.25% trypsin for 2-5 minutes, washed, counted, fixed with 2% PFA for 20 minutes, and cytospun onto glass slides.
For each marker, one to three different antibodies were tested. […] Cells were cover slipped and fluorescence intensity was quantified using iCys (CompuCyte, Westwood, Mass.). […]

[1] = 24 hr drug + 24 hr without drug

## Nc1ccn([C@@H]2O[C@H](CO)[C@@H](O)C2(F)F)c(=O)n1 [Gemcitabine, gemcitabine]
NCI-H460 cells; 24 hr drug
  ATM % change in MFI: 125%
  ATM % change of positive cells: −28%
  BRCA1 % change in MFI: −3%
  BRCA1 % change of positive cells: 162%
  BRCA2 % change in MFI: −43%
  BRCA2 % change of positive cells: 130%
  RAD51 % change in MFI: 7%
  RAD51 % change of positive cells: 62%
  Survivin % change in MFI: −32%
  Survivin % change of positive cells: −32%
  yH2AX % change in MFI: 3%
  yH2AX % change of positive cells: 204%
NCI-H460 cells; 24 hr drug + 6 hr without drug
  ATM % change in MFI: 438%
  ATM % change of positive cells: 80%
  BRCA1 % change in MFI: 18%
  BRCA1 % change of positive cells: −54%
  BRCA2 % change in MFI: −28%
  BRCA2 % change of positive cells: 6%
  RAD51 % change in MFI: 127%
  RAD51 % change of positive cells: 613%
  Survivin % change in MFI: 223%
  Survivin % change of positive cells: 1%
  yH2AX % change in MFI: 40%
  yH2AX % change of positive cells: 1235%
NCI-H460 cells; [1]
  ATM % change in MFI: 151%
  ATM % change of positive cells: 40%
  BRCA1 % change in MFI: 206%
  BRCA1 % change of positive cells: 3750%
  BRCA2 % change in MFI: 296%
  BRCA2 % change of positive cells: 167%
  RAD51 % change in MFI: 23%
  RAD51 % change of positive cells: 260%
  Survivin % change in MFI: 457%
  Survivin % change of positive cells: −14%
  yH2AX % change in MFI: 288%
  yH2AX % change of positive cells: 1834%
NCI-H460
  dose response in MTT cytotoxicity assay: Good dose response
HL60
  dose response in MTT cytotoxicity assay: Good dose response

## pentaerythritolyl-4-arm-(PEG-1-methylene-2 oxo-vinylamino acetate linked-irinotecan)-20K [4-arm-PEG-gly-irino-20K]
Metastatic breast cancer; 145 mg/m^2 IV, every 14 days or every 21 days
  objective response rate (ORR): 28.6%
Metastatic breast cancer; Total
  Overall Survival (OS): 10.3 months
  Progression Free Survival (PFS): 4.6 months
Metastatic breast cancer; Total, 16/45
  Overall best CA27.29 response (50% or better decline in at least one observation from baseline): 36% (16/45)
Metastatic breast cancer; Total, N = 66
  Overall Response Rate (ORR): 29% (N = 66)
Metastatic breast cancer; q21d
  Overall Survival (OS): (13.1 months in q21d)
  Progression Free Survival (PFS): (5.3 months in q21d)

## CCc1c2c(nc3ccc(O)cc13)-c1cc3c(c(=O)n1C2)COC(=O)[C@]3(O)CC [SN-38]
HCT116 cells; staining panel 1
  γ-H2Ax High, MFI (x10^3): HCT116 (SN38), 487 x10^3
HCT116 cells; staining panel 2
  RAD51 High, MFI (x10^3): HCT116 (SN38), 948 x10^3
NCI-H460 cells; 24 hr drug
  ATM % change in MFI: 120%
  ATM % change of positive cells: 13%
  BRCA1 % change in MFI: −8%
  BRCA1 % change of positive cells: 143%
  BRCA2 % change in MFI: −20%
  BRCA2 % change of positive cells: 131%
  RAD51 % change in MFI: −8%
  RAD51 % change of positive cells: 180%
  Survivin % change in MFI: 149%
  Survivin % change of positive cells: −18%
  yH2AX % change in MFI: 1%
  yH2AX % change of positive cells: 235%
NCI-H460 cells; 24 hr drug + 6 hr without drug
  ATM % change in MFI: 329%
  ATM % change of positive cells: 88%
  BRCA1 % change in MFI: −10%
  BRCA1 % change of positive cells: −52%
  BRCA2 % change in MFI: −16%
  BRCA2 % change of positive cells: 8%
  RAD51 % change in MFI: 120%
  RAD51 % change of positive cells: 337%
  Survivin % change in MFI: 203%
  Survivin % change of positive cells: 4%
  yH2AX % change in MFI: −7%
  yH2AX % change of positive cells: 919%
NCI-H460 cells; [1]
  ATM % change in MFI: 41%
  ATM % change of positive cells: 105%
  BRCA1 % change in MFI: 162%
  BRCA1 % change of positive cells: 3700%
  BRCA2 % change in MFI: 263%
  BRCA2 % change of positive cells: 261%
  RAD51 % change in MFI: 32%
  RAD51 % change of positive cells: 60%
  Survivin % change in MFI: 210%
  Survivin % change of positive cells: 85%
  yH2AX % change in MFI: −77%
  yH2AX % change of positive cells: 328%
NCI-H460; H460, 72 hours, 0.01-10 μM
  dose response in MTT cytotoxicity assay: Good dose response
HL60; HL60, 72 hours, 0.01-10 μM
  dose response in MTT cytotoxicity assay: Good dose response
